# Experimental data taken from patent publication US8115060B2, “Means and methods of controlling plant seed germination” (Applied Biotechnology Institute, Inc., priority 2008, dated 2012).
# How the values were obtained:
# [1] = test system: corn plants expressing avidin with a constitutive promoter targeted to the cell wall; test: Reversal of avidin-induced male sterility by application of biotin to corn plants; assay type: in vivo; details: biotin applied to plants; unpublished results
# Description: Biotin is a B vitamin and provides a safe chemical for seed treatment. In addition, biotin is inexpensive and readily available. […] When avidin was expressed in corn plants with a constitutive promoter targeted to the cell wall, male sterility occurred (14).
# [2] = test system: seeds from transformation events containing the avidin gene; test: Germination of T1 seeds containing the avidin gene, imbibed with and without biotin; assay type: in vivo, maize
# non-transformed seeds = test: Germination of non-transformed seeds imbibed in water with biotin; details: biotin in water used for imbibing
# Description: Since our T0 plants were crossed with non-transgenic maize in the greenhouse, it is expected that half of the seeds in our initial transformed plants (T1 seed) should not carry the avidin gene.
compound,measurement,setting,value
O=C(O)CCCC[C@@H]1SC[C@@H]2NC(=O)N[C@@H]21 [biotin],reversal of male sterility caused by avidin,[1],able to reverse the effect of avidin and render the plants fertile
same,number of seeds that failed to germinate,"[2]; 20 seeds from a single ear of transformed corn imbibed with biotin, after one week, best result",one
same,change in number of non germinating seeds when biotin applied during imbibing,"[2]; several experiments testing 240 seeds, compared with water",cut in half
same,biotin concentration tolerated with no detrimental signs of any effect on germination,non-transformed seeds,up to 10 μg/ml
